Like-named read-outs stand apart in the source and are kept apart here.
Key:
Assay type in all cases: biochemical
CDK6/CCND1 = CDK6/CCND1 (Homo sapiens, UniProt Q00534); assay: CDK6 homogeneous time-resolved fluorescence (HTRF) kinase assay; conditions: CDK6/CCND
How it was run: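 Recombinant CDK6/CCND1 (1 nM final) was preincubated with compound for 20 min at 23 °C in HEPES buffer with MgCl2, EGTA, DTT and Tween 20. Kinase reaction then ran 60 min at 23 °C with 1 mM ATP and 50 nM ULight-4E-BP1 (Thr37/46) peptide, and was stopped with EDTA.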

CDK2/CCNE1 = CDK2/CCNE1 (Homo sapiens, UniProt P24941); assay: CDK2 homogeneous time-resolved fluorescence (HTRF) kinase assay; conditions: CDK2/CCNE
How it was run: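 TR-FRET read-out (665 nm, or 665/615 ratio) of Eu-antibody detection of phospho-4E-BP1 (Thr37/46) ULight peptide. Enzyme 3 nM, ATP 1 mM, peptide 50 nM, 1% DMSO; 60 min reaction at 23 °C after 20 min compound preincubation. IC50 from 11-point half-log titrations, top typically 10 μM.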

CDK1/CCNB1 = CDK1/CCNB1 (Homo sapiens, UniProt P06493); assay: CDK1 homogeneous time-resolved fluorescence (HTRF) kinase assay; conditions: CDK1/CCNB
How it was run: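 Compounds, titrated 11 points in half-log steps typically from 10 μM, were incubated with enzyme for 20 min before ATP (1 mM) and ULight-labelled eIF4E-binding protein 1 peptide (50 nM) started a 60-min reaction at 23 °C. Phosphopeptide was detected by europium-antibody TR-FRET and IC50 values were derived.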

CDK4/CCND3 = CDK4/CCND3 (Homo sapiens, UniProt P11802); assay: CDK4 homogeneous time-resolved fluorescence (HTRF) kinase assay; conditions: CDK4/CCND
How it was run: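 HTRF kinase assay, CDK4/CCND3 1.5 nM, ATP 1 mM, ULight-4E-BP1 peptide 50 nM, 23 °C, 60 min reaction after 20 min preincubation. Eu-anti-pThr37/46 antibody detection. 11-pt half-log curves from 10 μM → IC50.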

[1] = x = IC50 >250 nM, read-out: CDK6/CCND IC50 (>250 nM column)
[2] = x = IC50 25-250 nM, read-out: CDK2/CCNE IC50 (25-250 nM)
[3] = x = IC50 >250 nM, read-out: CDK1/CCNB IC50 (>250 nM column)
[4] = x = IC50 >250 nM, read-out: CDK4/CCND IC50 (>250 nM column)
[5] = x = IC50 <25 nM, read-out: CDK2/CCNE IC50 (<25 nM)
[6] = x = IC50 25-250 nM, read-out: CDK4/CCND IC50 (25-250 nM)
[7] = x = IC50 25-250 nM, read-out: CDK6/CCND IC50 (25-250 nM)
[8] = x = IC50 25-250 nM, read-out: CDK1/CCNB IC50 (25-250 nM)

Chain of CDK1/CCNB1 (P06493 whole entry): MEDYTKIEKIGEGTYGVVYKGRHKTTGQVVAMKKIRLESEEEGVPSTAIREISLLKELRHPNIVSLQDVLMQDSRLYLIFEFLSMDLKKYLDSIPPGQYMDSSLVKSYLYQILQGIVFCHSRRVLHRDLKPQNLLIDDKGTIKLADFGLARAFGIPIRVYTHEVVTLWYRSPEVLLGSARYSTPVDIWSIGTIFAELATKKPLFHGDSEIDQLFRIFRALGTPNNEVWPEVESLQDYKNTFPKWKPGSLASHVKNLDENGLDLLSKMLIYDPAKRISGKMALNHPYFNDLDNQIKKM
Chain of CDK1/CCNB1 (P14635 whole entry partner): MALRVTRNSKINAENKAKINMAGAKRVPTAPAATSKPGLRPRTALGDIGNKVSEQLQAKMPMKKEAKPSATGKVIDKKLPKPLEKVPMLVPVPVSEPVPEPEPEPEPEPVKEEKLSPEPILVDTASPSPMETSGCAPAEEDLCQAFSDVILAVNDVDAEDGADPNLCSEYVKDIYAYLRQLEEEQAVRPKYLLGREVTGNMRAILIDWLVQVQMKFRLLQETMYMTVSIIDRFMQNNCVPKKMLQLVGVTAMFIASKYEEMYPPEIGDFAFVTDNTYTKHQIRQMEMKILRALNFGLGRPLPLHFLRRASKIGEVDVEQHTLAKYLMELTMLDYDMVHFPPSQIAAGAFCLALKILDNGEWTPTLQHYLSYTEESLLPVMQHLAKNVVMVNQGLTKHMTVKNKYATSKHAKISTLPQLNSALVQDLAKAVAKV
Chain of CDK4/CCND3 (P11802 whole entry): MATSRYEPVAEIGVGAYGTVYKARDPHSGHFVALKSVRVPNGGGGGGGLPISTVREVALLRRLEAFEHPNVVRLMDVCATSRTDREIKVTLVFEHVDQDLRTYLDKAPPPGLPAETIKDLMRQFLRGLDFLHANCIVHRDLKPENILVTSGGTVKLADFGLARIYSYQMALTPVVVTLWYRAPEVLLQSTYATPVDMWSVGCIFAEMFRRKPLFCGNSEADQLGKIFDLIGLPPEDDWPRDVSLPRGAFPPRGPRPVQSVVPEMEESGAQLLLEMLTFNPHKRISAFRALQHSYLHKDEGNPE
Chain of CDK4/CCND3 (P30281 whole entry partner): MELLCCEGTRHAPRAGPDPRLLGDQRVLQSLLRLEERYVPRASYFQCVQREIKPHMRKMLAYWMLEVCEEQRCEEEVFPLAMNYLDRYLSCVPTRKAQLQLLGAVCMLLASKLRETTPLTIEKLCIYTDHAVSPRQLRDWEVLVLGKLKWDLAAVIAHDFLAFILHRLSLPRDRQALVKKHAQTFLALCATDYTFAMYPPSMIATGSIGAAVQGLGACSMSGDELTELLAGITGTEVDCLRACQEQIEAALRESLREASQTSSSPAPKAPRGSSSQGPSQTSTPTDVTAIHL
Chain of CDK6/CCND1 (Q00534 whole entry): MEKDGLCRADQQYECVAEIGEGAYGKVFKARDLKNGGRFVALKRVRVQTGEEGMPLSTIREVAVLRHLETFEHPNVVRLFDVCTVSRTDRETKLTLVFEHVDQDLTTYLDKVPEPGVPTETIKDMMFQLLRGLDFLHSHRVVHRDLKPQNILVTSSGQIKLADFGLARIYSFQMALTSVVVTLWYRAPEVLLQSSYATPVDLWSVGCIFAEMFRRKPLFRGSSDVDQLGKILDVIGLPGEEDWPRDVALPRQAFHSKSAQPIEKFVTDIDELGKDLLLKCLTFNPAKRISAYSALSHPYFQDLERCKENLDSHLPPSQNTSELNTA
Chain of CDK6/CCND1 (P24385 whole entry partner): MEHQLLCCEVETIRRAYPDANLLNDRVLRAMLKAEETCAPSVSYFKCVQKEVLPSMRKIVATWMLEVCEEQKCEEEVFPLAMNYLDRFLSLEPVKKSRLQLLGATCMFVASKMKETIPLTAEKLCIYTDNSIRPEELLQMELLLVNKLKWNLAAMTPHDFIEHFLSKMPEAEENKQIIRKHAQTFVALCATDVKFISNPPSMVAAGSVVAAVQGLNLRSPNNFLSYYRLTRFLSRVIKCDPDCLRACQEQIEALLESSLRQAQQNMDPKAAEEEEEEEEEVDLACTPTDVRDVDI

Row | SMILES | IC50 (CDK6/CCND1; [1]) [nM] | IC50 (CDK2/CCNE1; [2]) [nM] | IC50 (CDK1/CCNB1; [3]) [nM] | IC50 (CDK4/CCND3; [4]) [nM] | IC50 (CDK2/CCNE1; [5]) [nM] | IC50 (CDK4/CCND3; [6]) [nM] | IC50 (CDK6/CCND1; [7]) [nM] | IC50 (CDK1/CCNB1; [8]) [nM]
1 | CS(=O)(=O)c1ccc(Nc2cc3c(C#Cc4cnc(N)nc4)nccc3cn2)cc1 [Ex 633, 5-((2-aminopyrimidin-5-yl)ethynyl)-N-(4-(methylsulfonyl)phenyl)-2,6-naphthyridin-3-amine] | > 250 | 25 to 250 | > 250 | > 250 |  |  |  | 
2 | CNC(=O)c1ccc(C#Cc2nccc3cnc(Nc4ccc(S(C)(=O)=O)cc4)cc23)cc1 [Ex 634, N-methyl-4-((7-((4-(methylsulfonyl)phenyl)amino)-2,6-naphthyridin-1-yl)ethynyl)benzamide] | > 250 |  | > 250 | > 250 | < 25 |  |  | 
3 | CS(=O)(=O)c1ccc(Nc2cc3c(C#Cc4cnn(C5CC5)c4)nccc3cn2)cc1 [Ex 635, 5-((1-cyclopropyl-1H-pyrazol-4-yl)ethynyl)-N-(4-(methylsulfonyl)phenyl)-2,6-naphthyridin-3-amine] | > 250 | 25 to 250 | > 250 | > 250 |  |  |  | 
4 | CS(=O)(=O)c1ccc(Nc2cc3c(C#Cc4ccc(OC(F)F)cc4)nccc3cn2)cc1 [Ex 636, 5-((4-(difluoromethoxy)phenyl)ethynyl)-N-(4-(methylsulfonyl)phenyl)-2,6-naphthyridin-3-amine] | > 250 | 25 to 250 | > 250 | > 250 |  |  |  | 
5 | Cn1nccc1C#Cc1nccc2cnc(Nc3ccc(S(C)(=O)=O)cc3)cc12 [Ex 637, 5-((1-methyl-1H-pyrazol-5-yl)ethynyl)-N-(4-(methylsulfonyl)phenyl)-2,6-naphthyridin-3-amine] | > 250 |  | > 250 | > 250 | < 25 |  |  | 
6 | CS(=O)(=O)c1ccc(Nc2cc3c(C#Cc4ccc5cn[nH]c5c4)nccc3cn2)cc1 [Ex 638, 5-((1H-indazol-6-yl)ethynyl)-N-(4-(methylsulfonyl)phenyl)-2,6-naphthyridin-3-amine] | > 250 |  | > 250 |  | < 25 | 25 to 250 |  | 
7 | CS(=O)(=O)c1ccc(Nc2cc3c(-c4ccc5nn(CCO)cc5c4)nccc3cn2)cc1 [Ex 639, 2-(5-(7-((4-(methylsulfonyl)phenyl)amino)-2,6-naphthyridin-1-yl)-2H-indazol-2-yl)ethan-1-ol] | > 250 | 25 to 250 | > 250 | > 250 |  |  |  | 
8 | CNC(=O)Cn1ncc2c(C)c(-c3nccc4cnc(Nc5ccc(S(C)(=O)=O)cc5)cc34)ccc21 [Ex 640, N-methyl-2-(4-methyl-5-(7-((4-(methylsulfonyl)phenyl)amino)-2,6-naphthyridin-1-yl)-1H-indazol-1-yl)acetamide] |  |  |  |  | < 25 | 25 to 250 | 25 to 250 | 25 to 250
9 | Cc1c(C#N)ccc(C#Cc2nccc3cnc(Nc4ccc(S(C)(=O)=O)cc4)cc23)c1C [Ex 643, 2,3-dimethyl-4-((7-((4-(methylsulfonyl)phenyl)amino)-2,6-naphthyridin-1-yl)ethynyl)benzonitrile] | > 250 | 25 to 250 | > 250 | > 250 |  |  |  | 
10 | CN1Cc2cc(-c3nccc4cnc(Nc5ccc(S(C)(=O)=O)cc5)cc34)ccc2CC1=O [Ex 644, 2-methyl-7-(7-((4-(methylsulfonyl)phenyl)amino)-2,6-naphthyridin-1-yl)-1,4-dihydroisoquinolin-3(2H)-one] | > 250 | 25 to 250 | > 250 | > 250 |  |  |  | 
11 | CS(=O)(=O)c1ccc(Nc2cc3c(C#Cc4ccc5[nH]ncc5c4)nccc3cn2)cc1 [Ex 645, 5-((1H-indazol-5-yl)ethynyl)-N-(4-(methylsulfonyl)phenyl)-2,6-naphthyridin-3-amine] | > 250 | 25 to 250 | > 250 | > 250 |  |  |  | 
12 | COc1ccc(C#Cc2nccc3cnc(Nc4ccc(S(C)(=O)=O)cc4)cc23)cn1 [Ex 646, 5-((6-methoxypyridin-3-yl)ethynyl)-N-(4-(methylsulfonyl)phenyl)-2,6-naphthyridin-3-amine] | > 250 | 25 to 250 | > 250 | > 250 |  |  |  | 
13 | CS(=O)(=O)c1ccc(Nc2cc3c(C#Cc4ccc(C#N)cc4C(F)(F)F)nccc3cn2)cc1 [Ex 647, 4-((7-((4-(methylsulfonyl)phenyl)amino)-2,6-naphthyridin-1-yl)ethynyl)-3-(trifluoromethyl)benzonitrile] | > 250 |  | > 250 | > 250 | < 25 |  |  | 
14 | CS(=O)(=O)c1ccc(Nc2cc3c(C#Cc4ccc5nc[nH]c5c4)nccc3cn2)cc1 [Ex 648, 5-((1H-benzo[d]imidazol-6-yl)ethynyl)-N-(4-(methylsulfonyl)phenyl)-2,6-naphthyridin-3-amine] | > 250 |  | > 250 | > 250 | < 25 |  |  | 
15 | CS(=O)(=O)c1ccc(Nc2cc3c(-c4ccc5c(c4)CNC(=O)C5)nccc3cn2)cc1 [Ex 649, 7-(7-((4-(methylsulfonyl)phenyl)amino)-2,6-naphthyridin-1-yl)-1,4-dihydroisoquinolin-3(2H)-one] | > 250 | 25 to 250 | > 250 | > 250 |  |  |  | 
16 | CS(=O)(=O)c1ccc(Nc2cc3c(C#Cc4ccc(C#N)c(F)c4)nccc3cn2)cc1 [Ex 650, 2-fluoro-4-((7-((4-(methylsulfonyl)phenyl)amino)-2,6-naphthyridin-1-yl)ethynyl)benzonitrile] | > 250 | 25 to 250 | > 250 | > 250 |  |  |  | 
17 | CS(=O)(=O)c1ccc(Nc2cc3c(C#Cc4ccc(C#N)c(F)c4F)nccc3cn2)cc1 [Ex 651, 2,3-difluoro-4-((7-((4-(methylsulfonyl)phenyl)amino)-2,6-naphthyridin-1-yl)ethynyl)benzonitrile] | > 250 | 25 to 250 | > 250 | > 250 |  |  |  | 
18 | CS(=O)(=O)c1ccc(Nc2cc3c(C#Cc4ccc(CCO)cc4)nccc3cn2)cc1 [Ex 652, 2-(4-((7-((4-(methylsulfonyl)phenyl)amino)-2,6-naphthyridin-1-yl)ethynyl)phenyl)ethan-1-ol] | > 250 |  | > 250 | > 250 | < 25 |  |  | 
19 | COC(=O)N1CCC(C#Cc2nccc3cnc(Nc4ccc(S(C)(=O)=O)cc4)cc23)CC1 [Ex 653, methyl 4-((7-((4-(methylsulfonyl)phenyl)amino)-2,6-naphthyridin-1-yl)ethynyl)piperidine-1-carboxylate] | > 250 | 25 to 250 | > 250 | > 250 |  |  |  | 
20 | Cn1cc2c(Cl)c(-c3nccc4cnc(Nc5ccc(S(C)(=O)=O)cc5)cc34)ccc2n1 [Ex 655, 5-(4-chloro-2-methyl-2H-indazol-5-yl)-N-(4-(methylsulfonyl)phenyl)-2,6-naphthyridin-3-amine] | > 250 |  | > 250 | > 250 | < 25 |  |  | 
21 | Cc1c(-c2nccc3cnc(Nc4ccc(S(C)(=O)=O)cc4)cc23)ccc2c1cnn2CC#N [Ex 656, 2-(4-methyl-5-(7-((4-(methylsulfonyl)phenyl)amino)-2,6-naphthyridin-1-yl)-1H-indazol-1-yl)acetonitrile] | > 250 | 25 to 250 | > 250 | > 250 |  |  |  | 
22 | Cc1c(-c2nccc3cnc(Nc4ccc(S(C)(=O)=O)cc4)cc23)ccc2c1ccn2CCO [Ex 657, 2-(4-methyl-5-(7-((4-(methylsulfonyl)phenyl)amino)-2,6-naphthyridin-1-yl)-1H-indol-1-yl)ethan-1-ol] |  |  |  |  | < 25 | 25 to 250 | 25 to 250 | 25 to 250
23 | Cc1c(-c2nccc3cnc(Nc4ccc(S(C)(=O)=O)cc4)cc23)ccc2cn[nH]c12 [Ex 658, 5-(7-methyl-1H-indazol-6-yl)-N-(4-(methylsulfonyl)phenyl)-2,6-naphthyridin-3-amine] |  |  |  |  | < 25 | 25 to 250 | 25 to 250 | 25 to 250
24 | COc1cc(C#Cc2nccc3cnc(Nc4ccc(S(C)(=O)=O)cc4)cc23)ccn1 [Ex 660, 5-((2-methoxypyridin-4-yl)ethynyl)-N-(4-(methylsulfonyl)phenyl)-2,6-naphthyridin-3-amine] | > 250 | 25 to 250 | > 250 | > 250 |  |  |  | 
